The text below walks through data of ChEMBL document CHEMBL1131703, “Azaindole derivatives with high affinity for the dopamine D4 receptor: synthesis, ligand binding studies and comparison of molecular electrostatic potential maps” (Bioorg Med Chem Lett, 1999).

One assay addresses D(2) dopamine receptor (Bos taurus, UniProt P20288). The assay can be described thus: Binding affinity was evaluated for the displacement of [3H]spiperone against bovine Dopamine receptor D2. On the technique in general: In a radioligand displacement assay an active substance lowers the binding of a labelled ligand.
A further assay addresses T1, D(4) dopamine receptor (Homo sapiens, UniProt P21917).
T1 sequence (P21917 whole entry): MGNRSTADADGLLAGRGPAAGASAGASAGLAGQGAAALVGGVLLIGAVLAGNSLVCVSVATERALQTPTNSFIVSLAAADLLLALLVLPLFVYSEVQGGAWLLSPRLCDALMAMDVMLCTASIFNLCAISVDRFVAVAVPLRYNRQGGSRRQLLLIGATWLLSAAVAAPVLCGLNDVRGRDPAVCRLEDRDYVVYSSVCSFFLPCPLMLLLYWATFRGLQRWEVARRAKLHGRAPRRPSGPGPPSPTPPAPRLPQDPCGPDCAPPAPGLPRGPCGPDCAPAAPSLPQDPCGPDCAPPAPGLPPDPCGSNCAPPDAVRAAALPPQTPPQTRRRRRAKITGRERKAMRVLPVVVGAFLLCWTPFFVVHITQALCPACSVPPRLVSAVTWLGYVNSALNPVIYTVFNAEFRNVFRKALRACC
The assay can be described thus: Binding affinity evaluated for the displacement of [3H]spiperone against human dopamine receptor D4.

The target in the next assay is D(1A) dopamine receptor (Bos taurus, UniProt Q95136). The assay can be described thus: Binding affinity was evaluated for the displacement of [3H]-SCH- 23390 against bovine Dopamine receptor D1.
Chain of D(1A) dopamine receptor (Q95136 whole entry): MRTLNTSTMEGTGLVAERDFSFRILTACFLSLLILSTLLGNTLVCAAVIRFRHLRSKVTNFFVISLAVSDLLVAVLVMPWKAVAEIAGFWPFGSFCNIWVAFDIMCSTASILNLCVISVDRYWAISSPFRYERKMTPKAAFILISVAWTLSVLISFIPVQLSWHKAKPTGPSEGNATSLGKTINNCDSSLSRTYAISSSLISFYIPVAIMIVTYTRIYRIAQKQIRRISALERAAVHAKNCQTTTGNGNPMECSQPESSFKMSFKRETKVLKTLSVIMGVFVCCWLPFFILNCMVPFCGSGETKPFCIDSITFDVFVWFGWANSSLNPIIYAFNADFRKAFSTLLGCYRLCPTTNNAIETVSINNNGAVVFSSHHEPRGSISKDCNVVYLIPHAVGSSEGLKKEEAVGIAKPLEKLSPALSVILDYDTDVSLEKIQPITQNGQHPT
The target in a further assay is D(3) dopamine receptor (Homo sapiens, UniProt P35462). The assay can be described thus: Binding affinity evaluated for the displacement of [3H]-spiperone against human dopamine receptor D3.
Chain of D(3) dopamine receptor (P35462 whole entry): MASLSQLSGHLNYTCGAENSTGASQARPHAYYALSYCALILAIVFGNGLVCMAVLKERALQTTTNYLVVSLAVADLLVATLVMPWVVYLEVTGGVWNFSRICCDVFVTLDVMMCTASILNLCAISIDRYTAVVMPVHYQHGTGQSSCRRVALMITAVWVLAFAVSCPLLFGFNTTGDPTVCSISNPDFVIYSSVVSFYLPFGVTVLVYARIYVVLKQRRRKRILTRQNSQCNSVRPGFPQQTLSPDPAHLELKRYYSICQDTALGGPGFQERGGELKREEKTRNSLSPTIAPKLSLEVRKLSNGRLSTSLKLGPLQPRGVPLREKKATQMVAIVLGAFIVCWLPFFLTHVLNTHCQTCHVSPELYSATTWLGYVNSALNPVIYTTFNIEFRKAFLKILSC

Chain of D(2) dopamine receptor (P20288 whole entry): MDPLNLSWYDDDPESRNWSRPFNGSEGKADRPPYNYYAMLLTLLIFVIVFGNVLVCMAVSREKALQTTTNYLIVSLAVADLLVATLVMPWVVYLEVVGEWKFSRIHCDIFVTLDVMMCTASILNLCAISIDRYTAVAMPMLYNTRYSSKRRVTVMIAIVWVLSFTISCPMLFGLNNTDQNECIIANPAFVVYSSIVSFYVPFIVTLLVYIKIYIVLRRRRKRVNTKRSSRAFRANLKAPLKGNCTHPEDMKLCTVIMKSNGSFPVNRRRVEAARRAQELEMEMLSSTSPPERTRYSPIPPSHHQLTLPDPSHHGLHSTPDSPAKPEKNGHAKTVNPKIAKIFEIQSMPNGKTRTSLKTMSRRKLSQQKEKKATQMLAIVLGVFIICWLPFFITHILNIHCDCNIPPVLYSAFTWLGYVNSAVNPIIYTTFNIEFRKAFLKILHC

As a reminder, the Ki is a measure of affinity in units of concentration, obtained from inhibition or displacement. For `O=C(c1cnn2ccccc12)N1CCN(c2ccc(Cl)cc2)CC1`, the inhibition constant (Ki) is 30 µM on D(2) dopamine receptor, 23 µM on D(4) dopamine receptor, over 100 µM at D(1A) dopamine receptor and 61 µM on D(3) dopamine receptor.
For `Ic1ccc(N2CCN(Cc3cnn4ccccc34)CC2)cc1` the same measures were 1.4 µM, 0.003 µM, 17 µM and 6.7 µM.
